Structures can show the parent of a compound that is named as a salt.
Legend:
[1] = acute toxicity (LD50 i.v. in the mouse); conditions: in vivo, iv
[2] = test system: Staphylococcus aureus 887 (Penicillin-sensitive); assay: antimicrobial activity, CD50 in the mouse upon subcutaneous injection, Staphylococcus aureus 887; assay type: in vivo
Text: (§1) The results represent CD50 values in the mouse upon subcutaneous injection. In the table, compound A is (7R)-3- [[(1,4,5,6-tetrahydro-4-ethyl-5,6-dioxo-as-triazin-3-yl)-thio]methyl]-7-[2-(5-oxo-1,2,3-oxadiazolidin-3-yl)-acetamido]-3-cephem-4-carboxylic acid sodium salt and compound B is (7R)-3- [[(1,4,5,6-tetrahydro-4-ethyl-5,6-dioxo-as-triazin-3-yl)-thio]methyl]-7-[2(1-H-tetrazol-1-yl)-acetamido]-3-cephem-4-carboxylic acid sodium salt.

[3] = test system: Staphylococcus aureus Schoch (Penicillin-sensitive); assay: antimicrobial activity, CD50 in the mouse upon subcutaneous injection, Staphylococcus aureus Schoch; assay type: in vivo
Text: as §1

Escherichia coli 1346 = assay: antimicrobial activity, CD50 in the mouse upon subcutaneous injection, Escherichia coli 1346; assay type: in vivo
Text: as §1

Row | Compound | LD50 ([1]; mouse) | CD50 [2] | CD50 [3] | CD50 (Escherichia coli 1346) | LD50 ([1]; i.v. in the mouse, acute toxicity)
1 | CCn1c(SCC2=C(C(=O)O)N3C(=O)[C@@H](NC(=O)Cn4cnnn4)[C@H]3SC2)n[nH]c(=O)c1=O [B, (7R)-3-[[(1,4,5,6-tetrahydro-4-ethyl-5,6-dioxo-as-triazin-3-yl)-thio]methyl]-7-[2(1-H-tetrazol-1-yl)-acetamido]-3-cephem-4-carboxylic acid sodium salt] | 1000 to 2000 mg/kg | 3.2 mg/kg | 0.6 mg/kg | 0.9 mg/kg | –
2 | CCn1c(SCC2=C(C(=O)O)N3C(=O)[C@@H](NC(=O)C[n+]4cc([O-])on4)[C@H]3SC2)n[nH]c(=O)c1=O [A, sodium salt] | – | 5.5 mg/kg | 0.25 mg/kg | 0.38 mg/kg | 2000 to 4000 mg/kg

— US4091211A, “Cephalosporins” (Hoffmann-La Roche Inc., priority 1974, dated 1978)
